US20230374007A1, “COMPOUNDS AND THEIR USE IN TREATING CANCER” (AstraZeneca AB, priority 2020, published 2023)

What follows are compounds tested against T1, cereblon (CRBN)—DNA damage protein 1 (DDB1) complex (Homo sapiens, UniProt Q96SW2) (assay: Cereblon HTRF binding assay).
T1 construct: encoding amino acid residues 1 to 442 (Uniprot Q96SW2); hexahistidine (N); thrombin cleavage site (N); made in house; host or cells: Sf9 insect cells (baculovirus co-infection)
Source text: The synthesized sequence was designed to encode an N-terminal hexahistidine tag, a thrombin cleavage site, an AviTag™ and a tobacco etch virus protease (TEV) cleavage site followed by the CBRN sequence. The resulting protein sequence is listed below.
The synthesized sequence was designed to encode an N-terminal hexahistidine tag, a tobacco etch virus protease (TEV) cleavage site followed by the DDB1 sequence. […] The linker amino acid residues are underlined and shown in italics.
Baculovirus production of CBRN and DDB1: Recombinant bacmid and P2 virus of CBRN and DDB1 was generated according to the Bac-to-Bac Baculovirus Expression System manual (ThermoFisher Scientific).
Protein Purification: Protein purification was initiated by thawing cells (resuspended in Lysis buffer) at r.t. Once thawed, NaCl was added to a final concentration of 200 mM, followed by 0.01 μL/mL Benzonase™ and the lysate was incubated with slow stirring for 20 minutes. After the freeze-thaw lysis, the whole cell lysate was centrifuged at 48 000 g for 45 minutes and all following purification steps were done on ice or in cold-room. Supernatant (cell lysate) was mixed with 1 mL/50 mL lysate Ni Sepharose™ 6 Fast Flow (Cytiva) pre-equilibrated with Wash buffer (50 mM Tris-Cl pH 8, 20 mM Imidazole, 500 mM NaCl, 10% Glycerol, 1 mM TCEP) and incubated with slow stirring for 1 h. The mix was loaded in a 70 mL open gravity flow column, washed with 10 bed volumes of Wash buffer, and stepwise eluted with 300 mM imidazole in Wash buffer. […] After biotinylation, the CBRN/DDB1 complex was purified by Size Exclusion Chromatography on a HiLoad™ 26/60 Superdex™ 200 column equilibrated in SEC buffer (50 mM HEPES pH 7.5, 200 mM NaCl, 5% glycerol, 1 mM TCEP) before flash-freezing in liquid nitrogen and storage at −80° C.
The assay mixture in a total volume of 4 μL consists of 50 mM Tris-HCl at pH 7.5, 100 mM NaCl, 0.01% Pluronic F127, 1 mM TCEP, 500 μM EDTA, 0.2 nM CRBN-DDB1, 0.2 nM terbium cryptate labeled streptavidin, and 2 nM Cyanine 5-labeled lenalidomide as the probe. […] Reagents were dispensed into the 384-well assay microplate using a Certus Flex liquid dispenser. After incubation for 2 h at r.t., the assay plates were read on a PHERAstar FSX plate reader (BMG Labtech) in the HTRF mode. The raw data from PHERAstar was directly imported into Genedata Screener for analysis. […] The ratio was normalized to positive and negative controls on the same plates to calculate percent inhibition: I %=(I−NC)/(PC−NC), where I are readings from the compound treated well, NC and PC are average readings from negative control wells and positive control wells, respectively. IC50 values were obtained by fitting the I % vs. compound concentration [I] to I %=S0+(SInf−S0)/(1+((IC50/[I])^n)), where S0 is the fitted activity level at zero concentration of test compound, SInf is the fitted activity level at […] concentration of test compound, and n is the hill coefficient of the curve.
The IC50 values reported below are the calculated mean result of one or more experiments.

T1 sequence (Q96SW2 with tags, fused parts or gaps): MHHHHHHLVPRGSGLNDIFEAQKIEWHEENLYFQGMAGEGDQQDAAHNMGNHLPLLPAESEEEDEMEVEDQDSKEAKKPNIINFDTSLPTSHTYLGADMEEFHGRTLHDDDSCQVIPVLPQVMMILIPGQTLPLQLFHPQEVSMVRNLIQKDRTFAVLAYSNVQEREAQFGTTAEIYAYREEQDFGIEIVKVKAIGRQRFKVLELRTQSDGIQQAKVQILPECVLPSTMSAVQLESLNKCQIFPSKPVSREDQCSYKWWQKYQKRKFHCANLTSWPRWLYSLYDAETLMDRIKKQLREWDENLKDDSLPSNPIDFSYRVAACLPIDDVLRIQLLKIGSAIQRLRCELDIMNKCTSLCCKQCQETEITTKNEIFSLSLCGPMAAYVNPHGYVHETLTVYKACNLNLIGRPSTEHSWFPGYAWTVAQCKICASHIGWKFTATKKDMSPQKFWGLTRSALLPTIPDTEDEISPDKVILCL

Row | Structure (SMILES) | IC50 [nM]
1 | CN1CCN(c2nc3ccc(N4CCC(=O)NC4=O)cc3o2)CC1 [Example 99, 1-(2-(4-Methylpiperazin-1-yl)benzo[d]oxazol-6-yl)dihydropyrimidine-2,4 (1H,3H)-dione] | 4560
2 | O=C1CCN(c2ccc3nn[nH]c3c2)C(=O)N1 [Example 38, 1-(1H-Benzo[d][1,2,3]triazol-6-yl)dihydropyrimidine-2,4 (1H,3H)-dione] | 566
3 | CN1Cc2ccc(N3CCC(=O)NC3=O)cc2C1=O [Example 10, 1-(2-Methyl-3-oxoisoindolin-5-yl)dihydropyrimidine-2,4 (1H,3H)-dione] | 7880
4 | O=C1CCN(c2ccc3cc(C4CCNCC4)[nH]c3c2)C(=O)N1 [Example 81, 1-(2-(Piperidin-4-yl)-1H-indol-6-yl)dihydropyrimidine-2,4 (1H,3H)-dione] | 65
5 | Cn1ccc2c(N3CCC(=O)NC3=O)ccc(N3CCNCC3)c21 [Example 125, 1-(1-Methyl-7-(piperazin-1-yl)-1H-indol-4-yl)dihydropyrimidine-2,4 (1H,3H)-dione] | 458
6 | CC(=O)N1CCC(n2ccc3ccc(N4CCC(=O)NC4=O)cc32)CC1 [Example 122, 1-(1-(1-Acetylpiperidin-4-yl)-1H-indol-6-yl)dihydropyrimidine-2,4 (1H,3H)-dione] | 2120
7 | O=C1CCN(c2cccc3nc(N4CCNCC4)sc23)C(=O)N1 [Example 101, 1-(2-(Piperazin-1-yl)benzo[d]thiazol-7-yl)dihydropyrimidine-2,4 (1H,3H)-dione] | 161
8 | Cc1c(N2CCC(=O)NC2=O)cnc2cc[nH]c12 [Example 49, 1-(7-Methyl-1H-pyrrolo[3,2-b]pyridin-6-yl)dihydropyrimidine-2,4 (1H,3H)-dione] | 124
9 | O=C1CCN(c2ccc3cn[nH]c3c2)C(=O)N1 [Example 42, 1-(1H-Indazol-6-yl)dihydropyrimidine-2,4 (1H,3H)-dione] | 2110
10 | O=C1CCN(c2ccc3c(c2)CNC3)C(=O)N1 [Example 24, 1-(Isoindolin-5-yl)dihydropyrimidine-2,4 (1H,3H)-dione] | 8980
11 | CN1CCN(c2ccc(N3CCC(=O)NC3=O)c3cc[nH]c23)CC1 [Example 124, 1-(7-(4-Methylpiperazin-1-yl)-1H-indol-4-yl)dihydropyrimidine-2,4 (1H,3H)-dione] | 527
12 | O=C1CCN(c2c(F)ccc3[nH]ccc23)C(=O)N1 [Example 63, 1-(5-Fluoro-1H-indol-4-yl)dihydropyrimidine-2,4 (1H,3H)-dione] | 235
13 | O=c1ccn(-c2ccc3cc[nH]c3c2)c(=O)[nH]1 [Example 13, 1-(1H-Indol-6-yl)pyrimidine-2,4 (1H,3H)-dione] | 765
14 | Cc1cc(N2CCC(=O)NC2=O)cc2[nH]ccc12 [Example 51, 1-(4-Methyl-1H-indol-6-yl)dihydropyrimidine-2,4 (1H,3H)-dione] | 511
15 | CN1CCN(c2c[nH]c3cc(N4CCC(=O)NC4=O)ccc23)CC1 [Example 72, 1-(3-(4-Methylpiperazin-1-yl)-1H-indol-6-yl)dihydropyrimidine-2,4 (1H,3H)-dione] | 926
16 | CNC(=O)Cc1cc2ccc(N3CCC(=O)NC3=O)cc2[nH]1 [Example 67, 2-(6-(2,4-Dioxotetrahydropyrimidin-1 (2H)-yl)-1H-indol-2-yl)-N-methylacetamide] | 974
17 | COc1cc(N2CCC(=O)NC2=O)c2ccn(C)c2c1 [Example 16, 1-(6-Methoxy-1-methyl-1H-indol-4-yl)dihydropyrimidine-2,4 (1H,3H)-dione] | 211
18 | Cn1c(=O)oc2cc(N3CCC(=O)NC3=O)ccc21 [Example 12, 1-(3-Methyl-2-oxo-2,3-dihydrobenzo[d]oxazol-6-yl)dihydropyrimidine-2,4 (1H,3H)-dione] | 11000
19 | O=C1CCN(c2cnc3cnoc3c2)C(=O)N1 [Example 36, 1-(Isoxazolo[4,5-b]pyridin-6-yl)dihydropyrimidine-2,4 (1H,3H)-dione] | 115

Row | Structure (SMILES) | IC50 [nM]
20 | CN1CCC(c2cc3c(N4CCC(=O)NC4=O)cccc3[nH]2)CC1 [Example 87, 1-(2-(1-Methylpiperidin-4-yl)-1H-indol-4-yl)dihydropyrimidine-2,4 (1H,3H)-dione] | 379
21 | CN1CCc2cc(N3CCC(=O)NC3=O)ccc21 [Example 21, 1-(1-Methylindolin-5-yl)dihydropyrimidine-2,4 (1H,3H)-dione] | 784
22 | O=C1CCN(c2ccc3nc(N4CCNCC4)oc3c2)C(=O)N1 [Example 98, 1-(2-(Piperazin-1-yl)benzo[d]oxazol-6-yl)dihydropyrimidine-2,4 (1H,3H)-dione] | 3120
23 | Cc1c(N2CCC(=O)NC2=O)c(F)cc2cc[nH]c12 [Example 58, 1-(5-Fluoro-7-methyl-1H-indol-6-yl)dihydropyrimidine-2,4 (1H,3H)-dione] | 288
24 | CN1CCc2cc(N3CCC(=O)NC3=O)ccc2C1 [Example 31, 1-(2-Methyl-1,2,3,4-tetrahydroisoquinolin-6-yl)dihydropyrimidine-2,4 (1H,3H)-dione] | 4100
25 | O=C1NC(=O)N(c2ccc3cc[nH]c3c2)CC1F (stereo not shown) [Example 45, 5-Fluoro-1-(1H-indol-6-yl)dihydropyrimidine-2,4 (1H,3H)-dione] | 967
26 | CNC(=O)Cn1ccc2ccc(N3CCC(=O)NC3=O)cc21 [Example 68, 2-(6-(2,4-Dioxotetrahydropyrimidin-1 (2H)-yl)-1H-indol-1-yl)-N-methylacetamide] | 2210
27 | CN1CCN(c2ccc(N3CCC(=O)NC3=O)c3ccn(C)c23)CC1 [Example 126, 1-(1-Methyl-7-(4-methylpiperazin-1-yl)-1H-indol-4-yl)dihydropyrimidine-2,4 (1H,3H)-dione] | 577
28 | CN1CCC(c2cn(C)c3cc(N4CCC(=O)NC4=O)ccc23)CC1 [Example 119, 1-(1-Methyl-3-(1-methylpiperidin-4-yl)-1H-indol-6-yl)dihydropyrimidine-2,4 (1H,3H)-dione] | 1450
29 | O=C1CCN(c2ccc3c(N4CCNCC4)noc3c2)C(=O)N1 [Example 93, 1-(3-(Piperazin-1-yl)benzo[d]isoxazol-6-yl)dihydropyrimidine-2,4 (1H,3H)-dione] | 12800
30 | O=c1[nH]c(=O)n(-c2ccc3cc[nH]c3c2)cc1F [Example 14, 5-Fluoro-1-(1H-indol-6-yl)pyrimidine-2,4 (1H,3H)-dione] | 516
31 | O=c1ccn(-c2ccc3cn(C4CCNCC4)nc3c2)c(=O)[nH]1 [Example 131, 1-(2-(Piperidin-4-yl)-2H-indazol-6-yl)pyrimidine-2,4 (1H,3H)-dione] | 2130
32 | CN1CCC(c2cc3ccc(N4CCC(=O)NC4=O)cc3[nH]2)CC1 [Example 82, 1-(2-(1-Methylpiperidin-4-yl)-1H-indol-6-yl)dihydropyrimidine-2,4 (1H,3H)-dione] | 168
33 | O=C1CCN(c2ccc3c(c2)CNCC3)C(=O)N1 [Example 28, 1-(1,2,3,4-Tetrahydroisoquinolin-7-yl)dihydropyrimidine-2,4 (1H,3H)-dione] | 17000
34 | CNC(=O)Cn1ccc2c(N3CCC(=O)NC3=O)cccc21 [Example 70, 2-(4-(2,4-Dioxotetrahydropyrimidin-1 (2H)-yl)-1H-indol-1-yl)-N-methylacetamide] | 1010
35 | O=C1CCN(c2ccc3cc4n(c3c2)CCNC4)C(=O)N1 [Example 102, 1-(1,2,3,4-Tetrahydropyrazino[1,2-a]indol-7-yl)dihydropyrimidine-2,4 (1H,3H)-dione] | 274
36 | CC(=O)N1CCN(c2noc3cc(N4CCC(=O)NC4=O)ccc23)CC1 [Example 95, 1-(3-(4-Acetylpiperazin-1-yl)benzo[d]isoxazol-6-yl)dihydropyrimidine-2,4 (1H,3H)-dione] | 6580
37 | O=C1CCN(c2ccc3c(c2)CCNC3)C(=O)N1 [Example 30, 1-(1,2,3,4-Tetrahydroisoquinolin-6-yl)dihydropyrimidine-2,4 (1H,3H)-dione] | 8680
